Measurements taken from patent US20250018019A1, “TREATMENT OF INTERFERON DRIVEN INFLAMMATION” (The Provost, Fellows, Foundation Scholars and the other …, priority 2023, published 2025).

How the values were obtained:
Format in all cases: cell-based, mouse
BMDMs [1] = assay: LC-MS steady-state metabolomics / fumarate levels in BMDMs; settings: BMDMs, AOAA 5 mM pre-treatment, LPS 4 h
Description: (§1) All compounds used DMSO as a vehicle except for 4-hydroxy tamoxifen (EtOH), NAC (PBS), and AOAA for tracing experiments (Media). LPS was used at a concentration of 100 ng/ml for indicated timepoints (2, 3, 4, 6, 8, 24, 48 h). FHIN1 (10 or 20 μM), MMF (50 or 100 μM), DMF (25 μM), AOAA (5 mM), oligomycin (10 μM), CCCP (50 μM) NAC (1 mM), and IMT1 (10 μM) pre-treatments were performed for 3 h prior the addition of LPS. Cells were treated with valinomycin (10 nM) 15 mins before LPS stimulation. Anti-CD210 or IgG control (10 μg/ml) antibodies were added to cells 1 h prior to LPS stimulation. Recombinant mouse IL-10 protein (100 ng/ml) was added to cells at the same time as LPS. Cells were treated with IFN-B1 (220 ng/ml) for 3 h. Cells were treated with C-178 (1 μM) 1 h prior to LPS stimulation or transfection with 2′3′-cGAMP (1.5 μg/ml) for 4 hrs to achieve cGAS-STING activation. Cells were treated with ODN 2088 (1 μM) for 1 hr prior to LPS stimulation or transfection with CPG ODN 1826 (1.5 μg/ml) to achieve TLR9 activation. 3 different timepoints of 4-hydroxy tamoxifen (TAM) (600 nM or 2 μM) or EtOH treatment were performed-these are specified in the individual figure legends. For ‘48 h’ treatments EtOH/TAM was added on day 5 of 6 during the BMDM differentiation protocol. On day 6 they were plated with EtOH/TAM (left overnight) and treated the following day. For ‘72 h’ treatments EtOH/TAM was added on day […] of 6 during the BMDM differentiation protocol. On day 6 they were plated with EtOH/TAM (left overnight) and treated the following day. For ‘96 h’ treatments EtOH/TAM was added on day […] of 6 during the BMDM differentiation protocol. On day 6 they were plated with EtOH/TAM and treated 2 days later.
BMDMs (3 independent mice) were plated at 0.5×10^6 cells/well in 12-well plates in technical triplicate per condition, treated as indicated, snap frozen and stored at −80° C. For metabolomics on cytosolic fraction, BMDMs were plated at 10×10^6 cells/10 cm dish and rapid fractionation was performed as previously reported^16. Metabolite extraction solution (MES) (methanol/acetonitrile/water, 50:30:20 v/v/v) was added (0.5 mL per 1×10^6 cells) and samples were incubated for 15 min on dry ice. The resulting suspension was transferred to ice-cold microcentrifuge tubes. Samples were agitated for 20 min at 4° C. in a thermomixer and then incubated at −20° C. for 1 h. Samples were centrifuged at maximum speed for 10 min at 4° C. The supernatant was transferred into a new tube and centrifuged again at maximum speed for 10 min at 4° C. The supernatant was transferred to autosampler vials and stored at −80° C. prior to analysis by LC-MS.
HILIC chromatographic separation of metabolites was achieved using a Millipore Sequant ZIC-PHILIC analytical column (5 μm, 2.1×150 mm) equipped with a 2.1×20 mm guard column (both […] particle size) with a binary solvent system. Solvent A was 20 mM ammonium carbonate, 0.05% ammonium hydroxide; Solvent B was acetonitrile. The column oven and autosampler tray were held at 40° C. and 4° C., respectively. The chromatographic gradient was run at a flow rate of 0.200 mL/min as follows: 0-2 min: 80% B; 2-17 min: linear gradient from 80% B to 20% B; 17-17.1 min: linear gradient from 20% B to 80% B; 17.1-22.5 min: hold at 80% B. Samples were randomized and analysed with LC-MS in a blinded manner and the injection volume was 5 μl. Pooled samples were generated from an equal mixture of all individual samples and analysed interspersed at regular intervals within sample sequence as a quality control. Metabolites were measured with a Thermo Scientific Q Exactive Hybrid Quadrupole-Orbitrap Mass spectrometer (HRMS) coupled to a Dionex Ultimate 3000 UHPLC or with Vanquish Horizon UHPLC coupled to an Orbitrap Exploris 240 mass spectrometer (both Thermo Fisher Scientific) via a heated electrospray ionization source. […]

BMDMs [2] = assay: Stable isotope-assisted tracing (15N2-glutamine) in BMDMs; settings: 15N2-glutamine tracing, LPS-treated BMDMs, LPS 4 h
Description: All compounds used DMSO as a vehicle except for 4-hydroxy tamoxifen (EtOH), NAC (PBS), and AOAA for tracing experiments (Media). LPS was used at a concentration of 100 ng/ml for indicated timepoints (2, 3, 4, 6, 8, 24, 48 h). FHIN1 (10 or 20 μM), MMF (50 or 100 μM), DMF (25 μM), AOAA (5 mM), oligomycin (10 μM), CCCP (50 μM) NAC (1 mM), and IMT1 (10 μM) pre-treatments were performed for 3 h prior the addition of LPS. Cells were treated with valinomycin (10 nM) 15 mins before LPS stimulation. Anti-CD210 or IgG control (10 μg/ml) antibodies were added to cells 1 h prior to LPS stimulation. Recombinant mouse IL-10 protein (100 ng/ml) was added to cells at the same time as LPS. Cells were treated with IFN-B1 (220 ng/ml) for 3 h. Cells were treated with C-178 (1 μM) 1 h prior to LPS stimulation or transfection with 2′3′-cGAMP (1.5 μg/ml) for 4 hrs to achieve cGAS-STING activation. […]
BMDMs (3 independent mice) were plated at 0.5×10^6 cells/well in 12-well plates in technical triplicate per condition, treated as indicated in glutamine-free DMEM supplemented with U-^13C-glutamine or ^15N2-glutamine, respectively. For ^13C- and ^15N-tracing analysis, the theoretical masses of ^13C and ^15N isotopes were calculated and added to a library of predicted isotopes in Tracefinder 5.0. […]

BMDMs [3] = assay: ELISA of cytokine release from BMDMs; settings: BMDMs pre-treated 3 h, LPS 4 h
Description: as §1
Pre-designed silencer select siRNAs for Cgas (s103166), Tmem173 (s91058), Tlr3 (s100579), Tlr9 (s96268), As/(s99640), Tlr7 (s100720), Ddx58 (s106376), Ifih1 (s89787), Nrf2 (s70522), Atf4 (s62689) and negative control (4390843) were ordered from Thermo Fisher. siRNA sequences are given in Table S2. Cells were transfected with 50 nM siRNA using 5 μl lipofectamine RNAiMAX according to manufacturer's instructions (Thermo Fisher). Cells were transfected in medium without serum and antibiotics which was replaced with complete medium 8 hours later. Cells were subsequently left for at least a further 12 hours prior to treatment.
BMDMs were plated in the presence or absence of ultrapure ethidium bromide (100 ng/ml) and incubated for a further 6 days prior to treatment. Depletion of mtDNA was determined by genomic DNA isolation followed by qPCR using primers specific for areas of mitochondrial DNA (D-loop) and areas of mtDNA that are not inserted into nuclear DNA (Non-NUMT).
DuoSet ELISA kits for IL-1β, TNFα, IL-6, IL-10, and GDF15 were purchased from R&D Systems and were carried out according to the manufacturer's instructions with appropriately diluted cell supernatants added to each plate in duplicate or triplicate. IFN-β was determined using DuoSet ELISA kit from R&D Systems or Abcam (ab252363). Quantikine ELISA kit for IFN-β (R&D Systems) was used for determination of IFN-β concentration in serum samples and from human cells, and these were also carried out according to the manufacturer's instructions. Absorbance at 450 nm was quantified using a FLUOstar Optima plate reader. Corrected absorbance values were calculated by subtracting the background absorbance, and cytokine concentrations were subsequently obtained by extrapolation from a standard curve plotted on GraphPad Prism 9.2.0.

NOCC(=O)O [AOAA, aminooxyacetic acid]
aspartate, asparagine, argininosuccinate levels following LPS stimulation (BMDMs [1]): reduced | fumarate levels following LPS stimulation (BMDMs [1]): reduced | contribution of glutamine nitrogen to aspartate, asparagine, arginine and citrulline (BMDMs [2]): completely prevented | IL-10 release (BMDMs [3]): modestly increased | TNF-α release (BMDMs [3]): reduced
